The record followed here is patent publication US12673050B2, “Compositions and their use for the treatment of A1-antitrypsin deficiency” (Centessa Pharmaceuticals (UK) Limited, priority 2021, dated 2026).

For test [1], the target named is T1, human M A1AT (Homo sapiens, UniProt P01009).
T1 construct: expressed in transfected cells; host or cells: HEK-M cells (HEK-EBNA with M A1AT plasmid)
The test is described as follows: A1AT cell secretion assay using HEK-M cells (ELISA). Type of test: cell-based. The note with it: 10 μM, 48 h. Here is the method: (§1) HEK-M cells, a human embryonic kidney cell line stably transfected with M A1AT, were plated into 96 well plates (3.0×10^5 cells/ml with 200 μl of media/well) overnight at 37° C. in a humidified atmosphere containing 5% CO2. Following incubation cells were washed with 200 μl serum-free media three times and media was replaced with serum-free media containing either vehicle, 10 μM suberanilohydroxamic acid (SAHA), (S)-1-((2-(trifluoromethyl)phenyl)sulfonyl)piperidine-3-carboxylic acid (at 10 μM) or (R)-1-((2-(trifluoromethyl)phenyl)sulfonyl)piperidine-3-carboxylic acid (at 10 μM) in replicates of six for 48 h in a 37° C. incubator in a final volume of 200 μl. At the end of the incubation step the supernatants were removed from the wells, centrifuged at 1000×g at 4° C. for 10 min and were assayed for human A1AT levels by ELISA (Human Serpin A1/α1 antitrypsin duo set ELISA, R& D Systems, DY1268) per manufacturer's instructions.
(§2) Briefly, a 96 well plate was coated with human A1AT capture antibody overnight at room temperature (1:180 dilution from stock, 100 μl final volume/well). The capture antibody was then removed and wells washed three times with 300 μl wash buffer (0.05% Tween in PBS) and then 200 μl reagent diluent (25% Tween 20 in PBS) was incubated in each well for 1 h at room temperature. Diluted samples, standards (125, 250, 500, 1000, 2000, 4000 and 8000 pg/ml A1AT) or blanks were then added to each well in duplicate and the plates were covered with a plate sealer and left at room temperature for 2 h. […] After which, 50 μl stop solution (2M H2SO4) was added and optical density (OD) of each well was read at 450 nm with 570 nm blank subtracted from each well using a microplate reader. A 4 parameter logistic curve was constructed using GraphPad Prism 7 and A1AT concentrations were determined in each sample by interpolation from a standard curve and multiplying by the appropriate dilution factor.
(§3) The amount of human A1AT secreted from transfected HEK-EBNA cells into the media was measured by ELISA. […]

Test [2] concerns the target T2, human Siiyama A1AT (Homo sapiens, UniProt P01009, S77F).
T2 construct: expressed in transfected cells; host or cells: HEK-Siiyama cells (HEK-EBNA with Siiyama A1AT plasmid)
Briefly: A1AT cell secretion assay using HEK-Siiyama cells (ELISA). Type of test: cell-based. Particulars: 10 μM, 48 h. Here is the method:
as §1, with “HEK-Siiyama” for “HEK-M”, “the Siiyama A1AT gene,” for “M A1AT,”, “containing” for “containing either”, “(at 1 or” for “(at”, “eight” for “six”, “A1/α1-antitrypsin” for “A1/α1 antitrypsin”
as §2, with “(0.05% Tween 20 in PBS)” for “(0.05% Tween in PBS)”
as §3

T1 sequence (P01009 25-418): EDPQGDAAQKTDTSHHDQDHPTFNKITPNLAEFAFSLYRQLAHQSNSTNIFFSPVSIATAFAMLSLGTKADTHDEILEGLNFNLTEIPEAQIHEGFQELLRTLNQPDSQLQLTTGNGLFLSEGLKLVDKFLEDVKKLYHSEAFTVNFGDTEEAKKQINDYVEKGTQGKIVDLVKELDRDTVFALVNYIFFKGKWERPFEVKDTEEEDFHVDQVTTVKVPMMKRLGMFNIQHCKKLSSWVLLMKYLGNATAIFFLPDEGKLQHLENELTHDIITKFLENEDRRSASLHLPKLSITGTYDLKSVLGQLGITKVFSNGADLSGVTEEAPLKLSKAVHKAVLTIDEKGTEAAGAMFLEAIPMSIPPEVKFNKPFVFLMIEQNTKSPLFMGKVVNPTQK
T2 sequence (P01009 25-418 S77F): as the sequence (P01009 25-418) above, with S53F counted along it

In the case of `O=C(CCCCCCC(=O)Nc1ccccc1)NO` [SAHA, suberanilohydroxamic acid, reference compound], the “secretion of human M A1AT into cell supernatant” value in test [1] was “stimulates an increase in M A1AT secretion”. The “secretion of human Siiyama A1AT into cell supernatant (positive control)” value in test [2] is listed as “stimulates an increase in Siiyama A1AT secretion”.
